Test results from patent US20260285850A1, “SUBSTITUTED OXAZOLIDINONES AND IMIDAZOLINONES AS HERBICIDES” (FMC CORPORATION, priority 2023, published 2026).

What was measured:
Format in all cases: in vivo
[1] = system: barnyardgrass (Echinochloa crus-galli); assay: Test A preemergence soil spray, visual injury rating 0-100; conditions: 10 days, 0 = no effect, 100 = complete control
In short: (§1)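 Compounds formulated in a non-phytotoxic solvent with surfactant are sprayed onto soil of freshly planted loam-sand pots ahead of emergence, or onto emerged plants 2-10 cm tall. After a 10-day greenhouse period, each species is scored visually for injury against untreated controls.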

[2] = system: blackgrass (Alopecurus myosuroides); assay: as above; conditions: 10 days, 0 = no effect, 100 = complete control
In short: as §1

corn (Zea mays) [3] = assay: as above; conditions: 10 days, 0 = no effect, 100 = complete control
In short: as §1

[4] = system: green foxtail (Setaria viridis); assay: as above; conditions: 10 days, 0 = no effect, 100 = complete control
In short: as §1

kochia (Bassia scoparia) [5] = assay: as above; conditions: 10 days, 0 = no effect, 100 = complete control
In short: as §1

[6] = system: oat, wild (wild oat, Avena fatua); assay: as above; conditions: 10 days, 0 = no effect, 100 = complete control
In short: as §1

[7] = system: palmer (palmer amaranth, palmer pigweed, Amaranthus palmeri); assay: as above; conditions: 10 days, 0 = no effect, 100 = complete control
In short: as §1

[8] = system: ryegrass, Italian (italian ryegrass, Lolium multiflorum); assay: as above; conditions: 10 days, 0 = no effect, 100 = complete control
In short: as §1

soybean (Glycine max) [9] = assay: as above; conditions: 10 days, 0 = no effect, 100 = complete control
In short: as §1

[10] = system: wheat (Triticum aestivum); assay: as above; conditions: 10 days, 0 = no effect, 100 = complete control
In short: as §1

[11] = system: barnyardgrass (Echinochloa crus-galli); assay: Test A postemergence application, visual injury rating 0-100; conditions: Postemergence, 10 days, 0 is no effect, 100 is complete control
In short: as §1

[12] = system: blackgrass (Alopecurus myosuroides); assay: as above; conditions: Postemergence, 10 days, 0 is no effect, 100 is complete control
In short: as §1

corn (Zea mays) [13] = assay: as above; conditions: Postemergence, 10 days, 0 is no effect, 100 is complete control
In short: as §1

[14] = system: galium (catchweed bedstraw, Galium aparine); assay: as above; conditions: Postemergence, 10 days, 0 is no effect, 100 is complete control
In short: as §1

[15] = system: green foxtail (Setaria viridis); assay: as above; conditions: Postemergence, 10 days, 0 is no effect, 100 is complete control
In short: as §1

[16] = system: horseweed (Erigeron canadensis); assay: as above; conditions: Postemergence, 10 days, 0 is no effect, 100 is complete control
In short: as §1

kochia (Bassia scoparia) [17] = assay: as above; conditions: Postemergence, 10 days, 0 is no effect, 100 is complete control
In short: as §1

[18] = system: oat, wild (wild oat, Avena fatua); assay: as above; conditions: Postemergence, 10 days, 0 is no effect, 100 is complete control
In short: as §1

[19] = system: palmer (palmer amaranth, palmer pigweed, Amaranthus palmeri); assay: as above; conditions: Postemergence, 10 days, 0 is no effect, 100 is complete control
In short: as §1

[20] = system: ragweed (common ragweed, Ambrosia artemisiifolia); assay: as above; conditions: Postemergence, 10 days, 0 is no effect, 100 is complete control
In short: as §1

[21] = system: ryegrass, Italian (italian ryegrass, Lolium multiflorum); assay: as above; conditions: Postemergence, 10 days, 0 is no effect, 100 is complete control
In short: as §1

soybean (Glycine max) [22] = assay: as above; conditions: Postemergence, 10 days, 0 is no effect, 100 is complete control
In short: as §1

[23] = system: wheat (Triticum aestivum); assay: as above; conditions: Postemergence, 10 days, 0 is no effect, 100 is complete control
In short: as §1

[24] = system: barnyardgrass (Echinochloa crusgalli); assay: Test B flooded paddy test, visual plant response rating 0-100; conditions: 250 g ai/ha, Flood, applied to paddy water, evaluated after 13 days
In short: (§2)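 Plants were grown to the 2-leaf stage, then pots were flooded to 3 cm above the soil and compound was applied directly to the paddy water, with that depth kept throughout.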

[25] = system: ducksalad (Heteranthera limosa); assay: as above; conditions: 250 g ai/ha, Flood, applied to paddy water, evaluated after 13 days
In short: as §2

rice (Oryza sativa) = assay: as above; conditions: 250 g ai/ha, Flood, applied to paddy water, evaluated after 13 days
In short: as §2

[26] = system: sedge, umbrella (small-flower umbrella sedge, Cyperus difformis); assay: as above; conditions: 250 g ai/ha, Flood, applied to paddy water, evaluated after 13 days
In short: as §2

CC1(C(=O)NC2C=CC(C(=O)OCC#N)C2)CN(c2cc(F)cc(F)c2)C(=O)O1 (centres unmarked) [Compound 35]
70: Blackgrass plant response rating (0 to 100 scale) ([2]; 125 g ai/ha) | Kochia plant response rating (0 to 100 scale) (kochia (Bassia scoparia) [17]; 125 g ai/ha) | Kochia plant response rating (0 to 100 scale) (kochia (Bassia scoparia) [17]; 500 g ai/ha) | Ragweed plant response rating (0 to 100 scale) ([20]; 125 g ai/ha) | Soybean plant response rating (0 to 100 scale) (soybean (Glycine max) [22]; 125 g ai/ha) | Wheat plant response rating (0 to 100 scale) ([23]; 125 g ai/ha)
80: Soybean plant response rating (0 to 100 scale) (soybean (Glycine max) [9]; 125 g ai/ha) | Galium plant response rating (0 to 100 scale) ([14]; 125 g ai/ha) | Galium plant response rating (0 to 100 scale) ([14]; 500 g ai/ha) | Horseweed plant response rating (0 to 100 scale) ([16]; 125 g ai/ha) | Amaranth, Palmer / Pigweed, Palmer plant response rating (0 to 100 scale) ([19]; 125 g ai/ha) | Ragweed plant response rating (0 to 100 scale) ([20]; 500 g ai/ha) | Wheat plant response rating (0 to 100 scale) ([23]; 500 g ai/ha)
90: Blackgrass plant response rating (0 to 100 scale) ([2]; 500 g ai/ha) | Corn plant response rating (0 to 100 scale) (corn (Zea mays) [3]; 125 g ai/ha) | Foxtail, Green plant response rating (0 to 100 scale) ([4]; 125 g ai/ha) | Kochia plant response rating (0 to 100 scale) (kochia (Bassia scoparia) [5]; 125 g ai/ha) | Kochia plant response rating (0 to 100 scale) (kochia (Bassia scoparia) [5]; 500 g ai/ha) | Oat, Wild plant response rating (0 to 100 scale) ([6]; 125 g ai/ha) | Oat, Wild plant response rating (0 to 100 scale) ([6]; 500 g ai/ha) | Soybean plant response rating (0 to 100 scale) (soybean (Glycine max) [9]; 500 g ai/ha) | Wheat plant response rating (0 to 100 scale) ([10]; 125 g ai/ha) | Blackgrass plant response rating (0 to 100 scale) ([12]; 125 g ai/ha) | Foxtail, Green plant response rating (0 to 100 scale) ([15]; 125 g ai/ha) | Foxtail, Green plant response rating (0 to 100 scale) ([15]; 500 g ai/ha) | Horseweed plant response rating (0 to 100 scale) ([16]; 500 g ai/ha) | Ryegrass, Italian plant response rating (0 to 100 scale) ([21]; 125 g ai/ha) | Ryegrass, Italian plant response rating (0 to 100 scale) ([21]; 500 g ai/ha) | Soybean plant response rating (0 to 100 scale) (soybean (Glycine max) [22]; 500 g ai/ha) | Plant response rating, Ducksalad (0 to 100 scale, 0 is no effect and 100 is complete control) [25] | Plant response rating, Sedge, Umbrella (0 to 100 scale, 0 is no effect and 100 is complete control) [26]
100: Barnyardgrass plant response rating (0 to 100 scale) ([1]; 125 g ai/ha) | Barnyardgrass plant response rating (0 to 100 scale) ([1]; 500 g ai/ha) | Corn plant response rating (0 to 100 scale) (corn (Zea mays) [3]; 500 g ai/ha) | Foxtail, Green plant response rating (0 to 100 scale) ([4]; 500 g ai/ha) | Amaranth, Palmer plant response rating (0 to 100 scale) ([7]; 125 g ai/ha) | Amaranth, Palmer plant response rating (0 to 100 scale) ([7]; 500 g ai/ha) | Ryegrass, Italian plant response rating (0 to 100 scale) ([8]; 125 g ai/ha) | Ryegrass, Italian plant response rating (0 to 100 scale) ([8]; 500 g ai/ha) | Wheat plant response rating (0 to 100 scale) ([10]; 500 g ai/ha) | Barnyardgrass plant response rating (0 to 100 scale) ([11]; 125 g ai/ha) | Barnyardgrass plant response rating (0 to 100 scale) ([11]; 500 g ai/ha) | Blackgrass plant response rating (0 to 100 scale) ([12]; 500 g ai/ha) | Corn plant response rating (0 to 100 scale) (corn (Zea mays) [13]; 125 g ai/ha) | Corn plant response rating (0 to 100 scale) (corn (Zea mays) [13]; 500 g ai/ha) | Oat, Wild plant response rating (0 to 100 scale) ([18]; 125 g ai/ha) | Oat, Wild plant response rating (0 to 100 scale) ([18]; 500 g ai/ha) | Amaranth, Palmer / Pigweed, Palmer plant response rating (0 to 100 scale) ([19]; 500 g ai/ha)
50: Plant response rating, Rice (0 to 100 scale, 0 is no effect and 100 is complete control) (rice (Oryza sativa))
95: Plant response rating, Barnyardgrass (0 to 100 scale, 0 is no effect and 100 is complete control) [24]
